In US20160050923A1, “N-SUBSTITUTED ACYL-IMINO-PYRIDINE COMPOUNDS AND DERIVATIVES FOR COMBATING ANIMAL PESTS” (BASF SE, priority 2013, published 2016):

How the values were obtained:
Format in all cases: in vivo
Myzus persicae = assay: Green peach aphid (Myzus persicae) spray test on infested bell pepper plants; details: 120 h, read-out: mortality in comparison with untreated controls
Protocol: B.1 Green Peach Aphid (Myzus persicae)
The active compounds were formulated by a Tecan liquid handler in 100% cyclohexanone as a 10,000 ppm solution supplied in tubes. The 10,000 ppm solution was serially diluted in 100% cyclohexanone to make interim solutions. These served as stock solutions for which final dilutions were made by the Tecan in 50% acetone:50% water (v/v) into 5 or 10 ml glass vials. A nonionic surfactant (Kinetic®) was included in the solution at a volume of 0.01% (v/v). The vials were then inserted into an automated electrostatic sprayer equipped with an atomizing nozzle for application to plants/insects.
Bell pepper plants at the first true-leaf stage were infested prior to treatment by placing heavily infested leaves from the main colony on top of the treatment plants. Aphids were allowed to transfer overnight to accomplish an infestation of 30-50 aphids per plant and the host leaves were removed. The infested plants were then sprayed by an automated electrostatic plant sprayer equipped with an atomizing spray nozzle. The plants were dried in the sprayer fume hood, removed, and then maintained in a growth room under fluorescent lighting in a 24-hr photoperiod at about 25° C. and about 20-40% relative humidity. Aphid mortality on the treated plants, relative to mortality on untreated control plants, was determined after 5 days.

Megoura viciae = assay: Vetch aphid (Megoura viciae) broad bean leaf disk microtiter test; details: foliar, 120 h, read-out: mortality in comparison with untreated controls
Protocol: B.2 Vetch Aphid (Megoura viciae)
For evaluating control of vetch aphid (Megoura viciae) through contact or systemic means the test unit consisted of 24-well-microtiter plates containing broad bean leaf disks.
The compounds were formulated using a solution containing 75% v/v water and 25% v/v DMSO. Different concentrations of formulated compounds were sprayed onto the leaf disks at 2.5 μl, using a custom built micro atomizer, at two replications.
After application, the leaf disks were air-dried and 5-8 adult aphids were placed on the leaf disks inside the microtiter plate wells. The aphids were then allowed to suck on the treated leaf disks and were incubated at about 23±1° C. and about 50±5% relative humidity for 5 days. Aphid mortality and fecundity was then visually assessed.

Aphis craccivora = assay: Cowpea aphid (Aphis craccivora) spray test on potted cowpea plants; details: 72 h, read-out: mortality in comparison with untreated controls
Protocol: B.4 Cowpea Aphid (Aphis craccivora)
The active compound was dissolved at the desired concentration in a mixture of 1:1 (vol:vol) distilled water: acetone. Surfactant (Alkamuls® EL 620) was added at a rate of 0.1% (vol/vol). The test solution was prepared at the day of use.
Potted cowpea plants were colonized with approximately 50-100 aphids of various stages by manually transferring a leaf tissue cut from infested plant 24 hours before application. Plants were sprayed after the pest population has been recorded. Treated plants were maintained on light carts at about 28° C. Percent mortality was assessed after 72 hours.

Dichromothrips corbetti = assay: Orchid thrips (Dichromothrips corbetti) floral-immersion test; details: 72 h, read-out: mortality in comparison with untreated controls
Protocol: B.6 Orchid Thrips (Dichromothrips corbetti)
Dichromothrips corbetti adults used for bioassay were obtained from a colony maintained continuously under laboratory conditions. For testing purposes, the test compound is diluted in a 1:1 mixture of acetone:water (vol:vol), plus 0.01% vol/vol Alkamuls® EL 620 surfactant.
Thrips potency of each compound was evaluated by using a floral-immersion technique. Plastic petri dishes were used as test arenas. All petals of individual, intact orchid flowers were dipped into treatment solution and allowed to dry. Treated flowers were placed into individual petri dishes along with about 20 adult thrips. The petri dishes were then covered with lids. All test arenas were held under continuous light and a temperature of about 28° C. for duration of the assay. After 3 days, the numbers of live thrips were counted on each flower, and along inner walls of each petri dish. The percentmortality was recorded 72 hours after treatment.

Nephotettix virescens = assay: Rice green leafhopper (Nephotettix virescens) test on sprayed rice seedlings; details: 72 h, read-out: mortality in comparison with untreated controls
Protocol: B.7 Rice Green Leafhopper (Nephotettix virescens)
Rice seedlings were cleaned and washed 24 hours before spraying. The active compounds were formulated in 50:50 acetone:water (vol:vol), and 0.1% vol/vol surfactant (EL 620) was added. Potted rice seedlings were sprayed with 5 ml test solution, air dried, placed in cages and inoculated with 10 adults. Treated rice plants were kept at about 28-29° C. and relative humidity of about 50-60%. Percent mortality was recorded after 72 hours.

Nilaparvata lugens = assay: Rice brown plant hopper (Nilaparvata lugens) test on sprayed rice seedlings; details: 72 h, read-out: mortality in comparison with untreated controls
Protocol: B.8 Rice Brown Plant Hopper (Nilaparvata lugens)
Rice seedlings were cleaned and washed 24 hours before spraying. The active compounds was formulated in 50:50 acetone:water (vol:vol) and 0.1% vol/vol surfactant (EL 620) was added. Potted rice seedlings were sprayed with 5 ml test solution, air dried, placed in cages and inoculated with 10 adults. Treated rice plants were kept at about 28-29° C. and relative humidity of about 50-60%. Percent mortality was recorded after 72 hours.

CS(=O)(=O)CC(=O)N=c1ccccn1Cc1ccc(Cl)nc1 [E1-10, N-[1-[(6-chloro-3-pyridyl)methyl]-2-pyridylidene]-2-methylsulfonyl-acetamide]
≥ 75%: mortality at 2500 ppm (Myzus persicae) | mortality at 2500 ppm (Megoura viciae) | mortality at 500 ppm (Aphis craccivora) | mortality at 500 ppm (Dichromothrips corbetti) | mortality at 500 ppm (Nephotettix virescens) | mortality at 500 ppm (Nilaparvata lugens)

CSCC(=O)/N=c1\ccccn1Cc1ccc(Cl)nc1 [E1-9, N-[1-[(6-chloro-3-pyridyl)methyl]-2-pyridylidene]-2-methylsulfanyl-acetamide]
≥ 75%: mortality at 2500 ppm (Myzus persicae) | mortality at 2500 ppm (Megoura viciae) | mortality at 500 ppm (Aphis craccivora) | mortality at 500 ppm (Nephotettix virescens) | mortality at 500 ppm (Nilaparvata lugens)
